Measured values from PMC7529893, “Structural basis for substrate recognition and chemical inhibition of oncogenic MAGE ubiquitin ligases” (Nature Communications, 2020).
In brackets after ≈: the same amount, converted by molar mass. Read-outs that look alike come from different tables or passages of the source.

Tests used:
[1] = Solubility assay (μSOL Evolution); assay type: physicochemical; conditions: 18 h at RT
Protocol: Solubility assays were carried out on a Biomek FX lab automation workstation (Beckman Coulter, Inc., Fullerton, CA) using μSOL Evolution software (pION Inc., Woburn, MA). The detailed method is described as follows. 10 µl of 10 mM compound stock (in DMSO) was added to 190 μl 1-propanol to make a reference stock plate. In total, 5 µl from this reference stock plate were mixed with 70 µl 1-propanol and 75 µl citrate phosphate-buffered saline (PBS; isotonic) to make the reference plate, and the UV spectrum (250–500 nm) of the reference plate was read. In total, 6 µl of 10 mM test compound stock was added to 594 µl buffer in a 96-well storage plate and mixed. The storage plate was sealed and incubated at RT for 18 h. The suspension was then filtered through a 96-well filter plate (pION Inc., Woburn, MA). In all, 75 µl of filtrate was mixed with 75 µl 1-propanol to make the sample plate, and the UV spectrum of the sample plate was read. Calculations were carried out with μSOL Evolution software based on the area under the curve (AUC) of the UV spectrum of the sample and reference plates. All compounds were tested in triplicate.

[2] = test system: Caco-2 cells; experiment: High throughput Caco-2 permeability; assay type: in vitro ADME; conditions: 10 µmol/l, 2 h; for Papp A→B: apical to basolateral; for Papp B→A: basolateral to apical
Protocol: High throughput Caco-2 permeability was performed in the TranswellR 0.4 µm polycarbonate membrane 96-well system with modified methods. Caco-2 cells were maintained at 37 °C in a humidified incubator with an atmosphere of 5% CO2. The cells were cultured in 75 cm^2 flasks with Dulbecco’s Modified Eagle’s Medium (DMEM) containing 10% (v/v) FBS, 1% (v/v) non-essential amino acids (NEAA), 100 units/ml of penicillin, and 100 µg/ml of streptomycin. The Caco-2 cells were seeded onto inserts at a density of 2 × 10^4 cells/insert separately. The medium in the wells was exchanged each other day, and the trans epithelial electrical resistance (TEER) value was measured using an epithelial voltohm meter (Millipore, Billerica, Massachusetts). […] For transport experiments, each cultured monolayer on the 96-well plate was washed twice with a transport buffer (HBSS containing 25 mM HEPES, pH 7.4). The permeability assay was initiated by the addition of each compound solution (10 µmol/l) into inserts (apical side, A) or receivers (basolateral side, B). The Caco-2 cell monolayers were incubated for 2 h at 37 °C. Fractions were collected from receivers (if apical to basal permeability) or inserts (if basal to apical permeability), and concentrations were assessed by UPLC/MS (Waters; Milford, MA). All compounds were tested in triplicates. The A → B (or B → A) apparent permeability coefficients (Papp) of each compound were calculated using the equation, Papp = dQ/dt × 1/AC0, where dQ/dt equals the flux of a drug across the monolayer, A equals the total insert well surface area, and C0 is the initial concentration of substrate in the donor compartment. The efflux ratio was determined by dividing the Papp in the B-A direction by the Papp in the A-B direction.

[3] = target: T1, MAGE-A11:PCF11 interaction (GST-MAGE-A11 MHD and FAM-PCF11_4) (Homo sapiens, UniProt P43364); experiment: TR-FRET dose response test of compounds for disruption of MAGE-A11:PCF11 binding
T1 construct: GST-MAGE-A11 MHD (human MAGE-A11 MHD amino acid 218-429); made in house; host or cells: E. coli BL21(DE3)
T1 sequence (P43364 218-429): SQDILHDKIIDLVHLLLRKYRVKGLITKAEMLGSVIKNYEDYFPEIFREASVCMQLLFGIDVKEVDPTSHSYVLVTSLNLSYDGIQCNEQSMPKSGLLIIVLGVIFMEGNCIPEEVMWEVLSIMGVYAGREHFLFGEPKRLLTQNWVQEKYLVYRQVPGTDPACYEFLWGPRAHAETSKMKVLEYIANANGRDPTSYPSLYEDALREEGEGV
In short: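 Competition of compounds against binding of FAM-PCF11_4 peptide to GST-MAGE-A11 MHD, detected with Tb-anti-GST, in 50 mM Tris pH 7.5, 20 mM MgCl2, 0.1 mg/ml BSA, 1 mM DTT. 90 min at ~25 °C; 520/490 nm emission ratio (340 nm excitation) fitted for IC50.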

[4] = Supplementary Data 4, read-out: TR-FRET, IC50
[5] = Supplementary Data 3, 59 quinoline compounds, read-out: TR-FRET IC50
[6] = Dose response TR-FRET screening of nine scaffold groups against MAGE-A11:PCF11, read-out: consensus IC50

Row | IC50 [3, 5] | IC50 [3, 6] | SMILES | further results
1 | – | – | FC(F)(F)c1ccc2c(NCCCNCc3ccc4c(c3)OCO4)ccnc2c1 [SJ000361106-02] | Solubility [1]: 128.74 µM (≈ 51.9 µg/mL); Papp A→B [2]: 47 ×10⁻⁶ cm/s; Papp B→A [2]: 40 ×10⁻⁶ cm/s
2 | – | – | FC(F)(F)c1ccc2c(NCCCNCc3ccco3)ccnc2c1 [SJ000361113-02] | IC50 [3, 4]: > 70 µM; Solubility [1]: 119.10 µM (≈ 41.6 µg/mL); Papp A→B [2]: 50.2 ×10⁻⁶ cm/s; Papp B→A [2]: 40.1 ×10⁻⁶ cm/s
3 | – | – | Clc1ccc2c(NCCCNCc3ccc4[nH]ccc4c3)ccnc2c1 [SJ000520909-03] | IC50 [3, 4]: 0.24 µM; Solubility [1]: 59.80 µM (≈ 21.8 µg/mL); Papp A→B [2]: 19.6 ×10⁻⁶ cm/s; Papp B→A [2]: 21.3 ×10⁻⁶ cm/s
4 | > 70 µM | – | Clc1ccc2c(NCCCNCc3cc4ccccc4s3)ccnc2c1 [SJ000521032-1, Clc1ccc2c(NCCCNCc3cc4ccccc4s3)ccnc2c1] | –
5 | > 70 µM | – | Clc1ccc2c(NCCCNCc3csc4ccccc34)ccnc2c1 [SJ000521033-1, Clc1ccc2c(NCCCNCc3csc4ccccc34)ccnc2c1] | –
6 | > 70 µM | – | FC(F)(F)c1ccc2c(NCCCNCc3cc(Br)cs3)ccnc2c1 [SJ000521056-1, FC(F)(F)c1ccc2c(NCCCNCc3cc(Br)cs3)ccnc2c1] | –
7 | > 70 µM | – | FC(F)(F)c1ccc2c(NCCCNCc3cc4ccccc4s3)ccnc2c1 [SJ000521060-1, FC(F)(F)c1ccc2c(NCCCNCc3cc4ccccc4s3)ccnc2c1] | –
8 | > 70 µM | – | FC(F)(F)c1ccc2c(NCCCNCc3csc4ccccc34)ccnc2c1 [SJ000521061-1, FC(F)(F)c1ccc2c(NCCCNCc3csc4ccccc34)ccnc2c1] | –
9 | – | 69.1 µM | COc1ccc(C(F)(F)F)cc1CNCCCNc1ccnc2cc(C(F)(F)F)ccc12 [SJ000521064-1] | –
10 | – | 40.9 µM | CCc1ccc(CNCCCNc2ccnc3cc(C(F)(F)F)ccc23)cc1 [SJ000521067-1] | –
11 | > 70 µM | – | CCCN(CCCNc1c2ccc(Cl)cc2nc2ccc(OC)cc12)Cc1ccc2[nH]ccc2c1 [SJ000522732-2, CCCN(CCCNc1c2ccc(Cl)cc2nc3ccc(OC)cc13)Cc4ccc5[nH]ccc5c4] | –
12 | 2.8 µM | – | CCCN(CCCNc1ccnc2cc(Cl)ccc12)Cc1ccc2[nH]ccc2c1 [SJ000522746-2, CCCN(CCCNc1ccnc2cc(Cl)ccc12)Cc3ccc4[nH]ccc4c3] | –
13 | > 70 µM | – | CCCN(CCCNc1ccnc2cc(Cl)ccc12)Cc1c(C)cc(C)cc1C [SJ000522749-1, CCCN(CCCNc1ccnc2cc(Cl)ccc12)Cc3c(C)cc(C)cc3C] | –
14 | > 70 µM | – | CCCN(CCCNc1ccnc2cc(Cl)ccc12)Cc1ccc(CC)cc1 [SJ000523001-1, CCCN(CCCNc1ccnc2cc(Cl)ccc12)Cc3ccc(CC)cc3] | –
15 | > 70 µM | – | CCCN(CCCNc1ccnc2cc(Cl)ccc12)Cc1cc(C(F)(F)F)ccc1OC [SJ000523012-1, CCCN(CCCNc1ccnc2cc(Cl)ccc12)Cc3cc(ccc3OC)C(F)(F)F] | –
16 | > 70 µM | – | CCCN(CCCNc1c2ccc(Cl)cc2nc2ccc(OC)cc12)Cc1c(Cl)ccc(Cl)c1Cl [SJ000523021-1, CCCN(CCCNc1c2ccc(Cl)cc2nc3ccc(OC)cc13)Cc4c(Cl)ccc(Cl)c4Cl] | –
17 | > 70 µM | – | CCCN(CCCNc1ccnc2cc(Cl)ccc12)Cc1ccc(-c2ccccc2)cc1 [SJ000523039-1, CCCN(CCCNc1ccnc2cc(Cl)ccc12)Cc3ccc(cc3)c4ccccc4] | –
18 | > 70 µM | – | CCCN(CCCNc1ccnc2cc(Cl)ccc12)Cc1ccc2ccccc2c1 [SJ000523040-1, CCCN(CCCNc1ccnc2cc(Cl)ccc12)Cc3ccc4ccccc4c3] | –
19 | – | 34.9 µM | Clc1ccc2c(NCCCNCc3ccc(-c4ccccc4)cc3)ccnc2c1 [SJ000523064-1] | –
20 | > 70 µM | – | Clc1cccc(-c2ccc(CNCCCNc3ccnc4cc(Cl)ccc34)o2)c1 [SJ000523069-1, Clc1cccc(c1)c2oc(CNCCCNc3ccnc4cc(Cl)ccc34)cc2] | –
21 | > 70 µM | – | CCCN(CCCNc1ccnc2cc(C(F)(F)F)ccc12)Cc1ccccc1OC [SJ000523072-1, CCCN(CCCNc1ccnc2cc(ccc12)C(F)(F)F)Cc3ccccc3OC] | –
22 | – | 65.7 µM | CCOc1ccc(N(C(C)=O)C2=C(N)C(=O)c3ccccc3C2=O)cc1 [SJ000558312-2] | –
23 | – | 60.8 µM | NC1=C(Nc2ccccc2)C(=O)c2ccccc2C1=O [SJ000562543-1] | –

Row | IC50 [3, 5] | IC50 [3, 6] | SMILES | further results
24 | – | > 70 µM | Cc1ccccc1NC1=C(N)C(=O)c2ccccc2C1=O [SJ000562551-1] | –
25 | – | 60.6 µM | Cc1ccc(NC2=C(N)C(=O)c3ccccc3C2=O)cc1 [SJ000562618-1] | –
26 | – | 54.8 µM | CCCCCCCCOc1ccc(NC2=C(N)C(=O)c3ccccc3C2=O)cc1 [SJ000562629-1] | –
27 | – | 53.8 µM | NC1=C(Nc2ccc(Cl)cc2)C(=O)c2ccccc2C1=O [SJ000562630-1] | –
28 | – | 55 µM | Cc1cc(C)cc(NC2=C(N)C(=O)c3ccccc3C2=O)c1 [SJ000562641-1] | –
29 | – | 9.46 µM | COc1cc(NCc2ccc3nc(N)nc(N)c3c2C)cc(OC)c1OC [SJ000574313-7] | –
30 | 33.2 µM | – | CCCN(CCCNc1ccnc2cc(C(F)(F)F)ccc12)Cc1ccc2[nH]ccc2c1 [SJ000575171-1, CCCN(CCCNc1ccnc2cc(ccc12)C(F)(F)F)Cc3ccc4[nH]ccc4c3] | –
31 | 22.8 µM | – | Clc1ccc2c(NCCCNCc3ccc[nH]3)ccnc2c1 [SJ000575192-1, Clc1ccc2c(NCCCNCc3ccc[nH]3)ccnc2c1] | –
32 | – | 67.8 µM | O=C1c2ccccc2NC(c2ccc(F)cc2F)N1CCCN1CCOCC1 (centres unmarked) [SJ000795275-1] | –
33 | – | 58.4 µM | O=C1c2ccccc2NC(c2ccc(F)c(F)c2)N1CCCN1CCOCC1 (centres unmarked) [SJ000803757-1] | –
34 | – | > 70 µM | CCCOc1ccc(C2Nc3ccccc3C(=O)N2CCCN2CCOCC2)cc1 (centres unmarked) [SJ000803758-1] | –
35 | – | 67.7 µM | CCOc1ccc(C2Nc3ccccc3C(=O)N2CCCN2CCOCC2)cc1 (centres unmarked) [SJ000803759-1] | –
36 | – | > 70 µM | COc1ccc(C2Nc3ccccc3C(=O)N2CCCN2CCOCC2)cc1OC(F)F (centres unmarked) [SJ000803760-1] | –
37 | – | 62.3 µM | Cc1cc(C)c(C2Nc3ccccc3C(=O)N2CCCN2CCOCC2)cc1C (centres unmarked) [SJ000803761-1] | –
38 | – | > 70 µM | CSc1ccc(C2Nc3ccccc3C(=O)N2CCCN2CCOCC2)cc1 (centres unmarked) [SJ000803762-1] | –
39 | – | 67.4 µM | COc1ccc2cc(C3Nc4ccccc4C(=O)N3CCCN3CCOCC3)ccc2c1 (centres unmarked) [SJ000803763-1] | –
40 | – | 68 µM | O=C1c2ccccc2NC(c2ccc(F)c(Br)c2)N1CCCN1CCOCC1 (centres unmarked) [SJ000803764-1] | –
41 | – | > 70 µM | CN(C)c1ccc(C2Nc3ccccc3C(=O)N2CCCN2CCOCC2)cc1 (centres unmarked) [SJ000803767-1] | –
42 | – | 65.9 µM | Cc1ccc(C2Nc3ccccc3C(=O)N2CCCN2CCOCC2)cc1 (centres unmarked) [SJ000803768-1] | –
43 | – | > 70 µM | CCCn1c(=O)c2[nH]c(-c3ccccc3)nc2n(CCC)c1=O [SJ000832251-1] | –
44 | – | > 70 µM | C=CCn1c(=O)c2c(nc(-c3ccccc3)n2C)n(C)c1=O [SJ000832270-1] | –
45 | – | – | Brc1ccc2c(NCCCNCc3ccc4[nH]ccc4c3)ccnc2c1 [SJ001008065-01] | IC50 [3, 4]: 0.62 µM; Solubility [1]: 57.14 µM (≈ 23.4 µg/mL); Papp A→B [2]: 18.3 ×10⁻⁶ cm/s; Papp B→A [2]: 19.3 ×10⁻⁶ cm/s

Row | SMILES | IC50 [3, 5] | IC50 [3, 6] | further results
46 | FC(F)(F)c1ccc2c(NCCCNCc3ccc4[nH]ccc4c3)ccnc2c1 [SJ000521054-1] | – | 0.397 µM | –
47 | Fc1ccc(CN(CCCCNc2ccnc3cc(Cl)ccc23)Cc2ccccc2)cc1 [SJ000522725-1, Fc1ccc(CN(CCCCNc2ccnc3cc(Cl)ccc23)Cc4ccccc4)cc1] | > 70 µM | – | –
48 | CCCCCCN(CCC)CCCNc1ccnc2cc(C(F)(F)F)ccc12 [SJ000523083-1, CCCCCCN(CCC)CCCNc1ccnc2cc(ccc12)C(F)(F)F] | > 70 µM | – | –
